Measurements taken from patent publication US10076116B2, “N-cycloalkyl-N-(biheterocyclymethylene)-(thio)carboxamide derivatives” (BAYER CROPSCIENCE AKTIENGESELLSCHAFT, priority 2013, dated 2018).

Columns and labels:
[1] = log P by HPLC on reversed-phase column (C 18), EEC Directive 79/831 Annex V.A8; type: physicochemical; details: HPLC C 18, 40° C., 0.1% aqueous formic acid and acetonitrile, gradient 10% to 90% acetonitrile
Procedure: In table 1, the log P values were determined in accordance with EEC Directive 79/831 Annex V.A8 by HPLC (High Performance Liquid Chromatography) on a reversed-phase column (C 18), using the method described below: Temperature: 40° C.; Mobile phases: 0.1% aqueous formic acid and acetonitrile; linear gradient from 10% acetonitrile to 90% acetonitrile. Calibration was carried out using unbranched alkan-2-ones (comprising 3 to 16 carbon atoms) with known log P values (determination of the log P values by the retention times using linear interpolation between two successive alkanones). lambda-max-values were determined using UV-spectra from 200 nm to 400 nm and the peak values of the chromatographic signals.

Puccinia recondita = test: In vivo preventive test on Puccinia recondita (brown rust on wheat)
Procedure: Example C: In Vivo Preventive Test on Puccinia recondita (Brown Rust on Wheat) […]
The young plants of wheat are treated by spraying the active ingredient prepared as described above. […]
After 24 hours, the plants are contaminated by spraying the leaves with an aqueous suspension of Puccinia recondita spores. The contaminated wheat plants are incubated for 24 hours at 20° C. and at 100% relative humidity and then for 10 days at 20° C. and at 70-80% relative humidity.
The test is evaluated 11 days after the inoculation. 0% means an efficacy which corresponds to that of the control plants while an efficacy of 100% means that no disease is observed.

Botrytis cinerea = test: In vivo preventive test on Botrytis cinerea (grey mould); details: gherkin; for protection: dose of 500 and 100 ppm of active ingredient
Procedure: Example B: In Vivo Preventive Test Botrvtis Cinerea (Grey Mould) Solvent: 5% by volume of Dimethyl sulfoxide • 10% by volume of Acetone Emulsifier: 1 μL of TWEEN® 80 per mg of active ingredient The active ingredients are made soluble and homogenized in a mixture of Dimethyl sulfoxide/Acetone/TWEEN® 80 and then diluted in water to the desired concentration. The young plants of gherkin are treated by spraying the active ingredient prepared as described above. Control plants are treated only with an aqueous solution of Acetone/Dimethyl sulfoxide/TWEEN® 80. After 24 hours, the plants are contaminated by spraying the leaves with an aqueous suspension of Botrytis cinerea spores. The contaminated gherkin plants are incubated for 4 to 5 days at 17° C. and at 90% relative humidity. The test is evaluated 4 to 5 days after the inoculation. 0% means an efficacy which corresponds to that of the control plants while an efficacy of 100% means that no disease is observed.

Uromyces appendiculatus = test: In vivo preventive test on Uromyces appendiculatus (bean rust)
Procedure: Example G: In Vivo Preventive Test on Uromvces Appendiculatus (Bean Rust) Solvent: 5% by volume of Dimethyl sulfoxide • 10% by volume of Acetone Emulsifier: 1 μL of TWEEN® 80 per mg of active ingredient The active ingredients are made soluble and homogenized in a mixture of Dimethyl sulfoxide/Acetone/TWEEN® 80 and then diluted in water to the desired concentration. The young plants of bean are treated by spraying the active ingredient prepared as described above. Control plants are treated only with an aqueous solution of Acetone/Dimethyl sulfoxide/TWEEN® 80. After 24 hours, the plants are contaminated by spraying the leaves with an aqueous suspension of Uromyces appendiculatus spores. The contaminated bean plants are incubated for 24 hours at 20° C. and at 100% relative humidity and then for 10 days at 20° C. and at 70-80% relative humidity. The test is evaluated 11 days after the inoculation. 0% means an efficacy which corresponds to that of the control plants while an efficacy of 100% means that no disease is observed.

[2] = wheat, compounds of this patent
[3] = dose 100 ppm, wheat, compounds of this patent
[4] = dose 500 ppm, wheat, compounds of this patent
[5] = dose 500 ppm, in very similar conditions, prior-art analogues
[6] = very similar conditions, formulated in DMF with 2% of alkylarylpolyglycolether
[7] = in very similar conditions, dose of 500 and 100 ppm, analogues of WO2012/059497
[8] = dose 125 ppm, in very similar conditions, prior-art analogues
[9] = in very similar conditions, dose of 500 and 125 ppm, analogues of WO2009/016222 and WO2008/037789

## Cc1ccc(-c2cc(C(F)(F)F)cnc2CN(C(=O)c2c(C(F)F)nn(C)c2F)C2CC2)s1 [I.21]
[1]
  logP: 4.35
Puccinia recondita; [2]
  Efficacy at 100 ppm (Table C1): 89%
  Efficacy at 500 ppm (Table C1): 98%

## Cc1cscc1-c1cc(C(F)(F)F)cnc1CN(C(=S)c1c(C(F)F)nn(C)c1F)C1CC1 [I.37]
[1]
  logP: 4.67
Puccinia recondita; [3]
  Efficacy (Table C2): 86%
Puccinia recondita; [4]
  Efficacy (Table C2): 93%

## Cn1cc(C(=O)N(Cc2ncc(C(F)(F)F)cc2-c2ccsc2)C2CC2)c(C(F)F)n1 [I.41]
[1]
  logP: 3.42
Puccinia recondita; [3]
  Efficacy (Table C2): 79%
Puccinia recondita; [4]
  Efficacy (Table C2): 93%

## Cn1cc(C(=O)N(Cc2nc(-c3ccc(Cl)cc3)cs2)C2CC2)c(C(F)(F)F)c1 [28 from WO2008/015189, N-{[4-(4-chlorophenyl)-1,3-thiazol-2-yl]methyl}-N-cyclopropyl-1-methyl-4-(trifluoromethyl)-1H-pyrrole-3-carboxamide]
Puccinia recondita; [5]
  Efficacy (Table C3): 11%

## Cc1nn(C)c(F)c1C(=O)N(Cc1nc(-c2ccc(Cl)cc2)cs1)C1CC1 [12 from WO2008/015189, N-{[4-(4-chlorophenyl)-1,3-thiazol-2-yl]methyl}-N-cyclopropyl-5-fluoro-1,3-dimethyl-1H-pyrazole-4-carboxamide]
Puccinia recondita; [5]
  Efficacy (Table C3): 0%

## Cc1sc(-c2ccccc2)cc1C(C)N(C(=O)c1c(C(F)F)nn(C)c1F)C1CC1 (stereo not shown) [147 from WO2012/059497, N-cyclopropyl-3-(difluoromethyl)-5-fluoro-1-methyl-N-[1-(2-methyl-5-phenyl-3-thienyl)ethyl]-1H-pyrazole-4-carboxamide]
Puccinia recondita; [6]
  Efficacy at 100 ppm (Table C1): 0%
  Efficacy at 500 ppm (Table C1): 30%
Puccinia recondita; [7]
  protection: good (at least 80%) to no protection

## Cn1nc(C(F)F)c(C(=O)N(Cc2ncc(C(F)(F)F)cc2-c2ccncc2)C2CC2)c1F [CMP3, N-cyclopropyl-3-(difluoromethyl)-5-fluoro-1-methyl-N-{[5-(trifluoromethyl)-3,4′-bipyridin-2-yl]methyl}-1H-pyrazole-4-carboxamide, reference compound]
Botrytis cinerea; dose 100 ppm
  Efficacy (Table B1): 0%
Botrytis cinerea; dose 500 ppm
  Efficacy (Table B1): 0%
Botrytis cinerea
  protection: no protection
Uromyces appendiculatus; dose 100 ppm
  Efficacy (Table G1): 0%
Uromyces appendiculatus; dose 500 ppm
  Efficacy (Table G1): 17%

## Cn1nc(C(F)F)c(C(=O)N(Cc2ncc(C(F)(F)F)cc2-c2cccnc2)C2CC2)c1F [CMP2, N-cyclopropyl-3-(difluoromethyl)-5-fluoro-1-methyl-N-{[5-(trifluoromethyl)-3,3′-bipyridin-2-yl]methyl}-1H-pyrazole-4-carboxamide, reference compound]
Botrytis cinerea; dose 100 ppm
  Efficacy (Table B1): 0%
Botrytis cinerea; dose 500 ppm
  Efficacy (Table B1): 0%
Botrytis cinerea
  protection: no protection
Uromyces appendiculatus; dose 100 ppm
  Efficacy (Table G1): 0%
Uromyces appendiculatus; dose 500 ppm
  Efficacy (Table G1): 0%

## Cn1nc(C(=O)N(Cc2nc(-c3ccc(Cl)cc3)cs2)C2CC2)c(C(F)(F)F)n1 [50 from WO2008/015189, N-{[4-(4-chlorophenyl)-1,3-thiazol-2-yl]methyl}-N-cyclopropyl-2-methyl-5-(trifluoromethyl)-2H-1,2,3-triazole-4-carboxamide]
Puccinia recondita; [5]
  Efficacy (Table C3): 0%

## CCc1nn(C)c(F)c1C(=O)N(Cc1cn(-c2ccccc2)c2ccccc12)C1CC1 [29 from WO-2009/016222, N-cyclopropyl-3-ethyl-5-fluoro-1-methyl-N-[(1-phenyl-1H-indol-3-yl)methyl]-1H-pyrazole-4-carboxamide]
Puccinia recondita; [8]
  Efficacy (Table C2): 22%
Puccinia recondita; [5]
  Efficacy (Table C2): 67%
Puccinia recondita; [9]
  protection: good (at least 70%) to no protection

## Cn1nc(C(F)F)c(C(=O)N(Cc2cc3ccccc3n2-c2ccccc2)C2CC2)c1F [155 from WO2012/059497, N-cyclopropyl-3-(difluoromethyl)-5-fluoro-1-methyl-N-[(1-phenyl-1H-indol-2-yl)methyl]-1H-pyrazole-4-carboxamide]
Puccinia recondita; [6]
  Efficacy at 100 ppm (Table C1): 0%
  Efficacy at 500 ppm (Table C1): 20%
Puccinia recondita; [7]
  protection: good (at least 80%) to no protection

## COc1ccsc1-c1cc(C(F)(F)F)cnc1CN(C(=O)c1c(C(F)F)nn(C)c1F)C1CC1 [I.23]
[1]
  logP: 3.89
Puccinia recondita; [2]
  Efficacy at 100 ppm (Table C1): 98%
  Efficacy at 500 ppm (Table C1): 100%

## Cc1nn(C)c(F)c1C(=O)N(Cc1ccc(Oc2ccccc2)nc1)C1CC1 [35 from WO-2008/037789, N-cyclopropyl-5-fluoro-1,3-dimethyl-N-[(6-phenoxypyridin-3-yl)methyl]-1H-pyrazole-4-carboxamide]
Puccinia recondita; [8]
  Efficacy (Table C2): 0%
Puccinia recondita; [5]
  Efficacy (Table C2): 0%
Puccinia recondita; [9]
  protection: good (at least 70%) to no protection

## Cc1nn(-c2ccccc2)nc1CN(C(=O)c1c(C(F)F)nn(C)c1F)C1CC1 [131 from WO2012/059497, N-cyclopropyl-3-(difluoromethyl)-5-fluoro-1-methyl-N-[(5-methyl-2-phenyl-2H-1,2,3-triazol-4-yl)methyl]-1H-pyrazole-4-carboxamide]
Puccinia recondita; [6]
  Efficacy at 100 ppm (Table C1): 0%
  Efficacy at 500 ppm (Table C1): 11%
Puccinia recondita; [7]
  protection: good (at least 80%) to no protection

## Cc1nc(C)c(-c2sccc2CN(C(=O)c2c(C(F)F)nn(C)c2F)C2CC2)s1 [I.11]
[1]
  logP: 2.88
Puccinia recondita; 500 ppm of active ingredient, wheat plants, evaluated 11 days after inoculation
  efficacy: at least 60%
Puccinia recondita; dose 500 ppm, wheat, compound of this patent
  Efficacy (Table C3): 69%

## Cc1nc(-c2ccc(Cl)cc2)sc1CN(C(=O)c1c(C)nn(C)c1F)C1CC1 [17 from WO2008/015189, N-{[2-(4-chlorophenyl)-4-methyl-1,3-thiazol-5-yl]methyl}-N-cyclopropyl-5-fluoro-1,3-dimethyl-1H-pyrazole-4-carboxamide]
Puccinia recondita; [5]
  Efficacy (Table C3): 10%

## Cc1nc(-c2ccc(Cl)cc2)sc1CN(C(=O)c1cn(C)nc1C(F)F)C1CC1 [45 from WO2008/015189, N-{[2-(4-chlorophenyl)-4-methyl-1,3-thiazol-5-yl]methyl}-N-cyclopropyl-3-(difluoromethyl)-1-methyl-1H-pyrazole-4-carboxamide]
Puccinia recondita; [5]
  Efficacy (Table C3): 0%

## Cn1nc(C(F)F)c(C(=O)N(Cc2cc(-c3cc(F)c(F)c(F)c3)no2)C2CC2)c1F [165 from WO2012/059497, N-cyclopropyl-3-(difluoromethyl)-5-fluoro-1-methyl-N-{[3-(3,4,5-trifluorophenyl)-1,2-oxazol-5-yl]methyl}-1H-pyrazole-4-carboxamide]
Puccinia recondita; [6]
  Efficacy at 100 ppm (Table C1): 0%
  Efficacy at 500 ppm (Table C1): 10%
Puccinia recondita; [7]
  protection: good (at least 80%) to no protection

## Cn1cc(C(=O)N(Cc2nc(-c3ccc(Cl)cc3)cs2)C2CC2)c(C(F)(F)F)n1 [59 from WO2008/015189, N-{[4-(4-chlorophenyl)-1,3-thiazol-2-yl]methyl}-N-cyclopropyl-1-methyl-3-(trifluoromethyl)-1H-pyrazole-4-carboxamide]
Puccinia recondita; [5]
  Efficacy (Table C3): 0%
